# In PubChem BioAssay (NCI):
#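 GI50 = concentration required for 50% inhibition of growth. The concentration for full growth arrest is given as TGI.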
# Columns and labels:
# Assay in all cases: NCI tumour cell line growth inhibition, 384-well format
# 786-0 renal = system: 786-0 renal
# A498 renal = system: A498 renal
# A549 NSCLC = system: A549 NSCLC
# ACHN renal = system: ACHN renal
# BT-549 breast = system: BT-549 breast
# COLO 205 colon = system: COLO 205 colon
# DU-145 prostate = system: DU-145 prostate
# EKVX NSCLC = system: EKVX NSCLC
# HCC-2998 colon = system: HCC-2998 colon
# HCT-15 colon = system: HCT-15 colon
# HL-60(TB) leukemia = system: HL-60(TB) leukemia
# HOP-62 NSCLC = system: HOP-62 NSCLC
# HS 578T breast = system: HS 578T breast
# HT29 colon = system: HT29 colon
# K-562 leukemia = system: K-562 leukemia
# KM12 colon = system: KM12 colon
# LOX IMVI melanoma = system: LOX IMVI melanoma
# M14 melanoma = system: M14 melanoma
# MALME-3M melanoma = system: MALME-3M melanoma
# MCF7 breast = system: MCF7 breast
# MDA-MB-231 breast = system: MDA-MB-231 breast
# MDA-MB-435 melanoma = system: MDA-MB-435 melanoma
# MDA-MB-468 breast = system: MDA-MB-468 breast
# MOLT-4 leukemia = system: MOLT-4 leukemia
# NCI-H226 lung = system: NCI-H226 lung
# NCI-H23 lung = system: NCI-H23 lung
# NCI-H322M lung = system: NCI-H322M lung
# NCI-H460 NSCLC = system: NCI-H460 NSCLC
# NCI-H522 lung = system: NCI-H522 lung
# NCI/ADR-RES ovarian = system: NCI/ADR-RES ovarian
# OVCAR-3 ovarian = system: OVCAR-3 ovarian
# OVCAR-4 ovarian = system: OVCAR-4 ovarian
# OVCAR-8 ovarian = system: OVCAR-8 ovarian
# PC-3 prostate = system: PC-3 prostate
# RPMI-8226 leukemia = system: RPMI-8226 leukemia
# RXF 393 renal = system: RXF 393 renal
# SF-268 CNS = system: SF-268 CNS
# SF-295 CNS = system: SF-295 CNS
# SF-539 CNS = system: SF-539 CNS
# SK-MEL-28 melanoma = system: SK-MEL-28 melanoma
# SK-MEL-5 melanoma = system: SK-MEL-5 melanoma
# SK-OV-3 ovarian = system: SK-OV-3 ovarian
# SN12C renal = system: SN12C renal
# SNB-19 CNS = system: SNB-19 CNS
# SNB-75 CNS = system: SNB-75 CNS
# SR leukemia = system: SR leukemia
# SW-620 colon = system: SW-620 colon
# T-47D breast = system: T-47D breast
# TK-10 renal = system: TK-10 renal
# U251 glioblastoma = system: U251 glioblastoma
# UACC-257 melanoma = system: UACC-257 melanoma
# UACC-62 melanoma = system: UACC-62 melanoma
# UO-31 renal = system: UO-31 renal
smiles,measurement,setting,value
CC(C)c1cc(CNc2nc(Nc3cc(C4CC4)[nH]n3)cc(N3CCN(C)CC3)n2)on1,GI50,786-0 renal,0.135 µM
same,TGI,786-0 renal,0.904 µM
same,GI50,A498 renal,0.189 µM
same,TGI,A498 renal,12.4 µM
same,GI50,A549 NSCLC,0.0201 µM
same,TGI,A549 NSCLC,6.83 µM
same,GI50,ACHN renal,0.225 µM
same,TGI,ACHN renal,13.4 µM
same,GI50,BT-549 breast,0.0341 µM
same,TGI,BT-549 breast,0.197 µM
same,GI50,COLO 205 colon,< 0.01 µM
same,TGI,COLO 205 colon,0.0211 µM
same,GI50,DU-145 prostate,0.12 µM
same,TGI,DU-145 prostate,0.769 µM
same,GI50,EKVX NSCLC,0.0288 µM
same,TGI,EKVX NSCLC,0.359 µM
same,GI50,HCC-2998 colon,0.203 µM
same,TGI,HCC-2998 colon,1.98 µM
same,GI50,HCT-15 colon,0.246 µM
same,TGI,HCT-15 colon,2.93 µM
same,GI50,HL-60(TB) leukemia,< 0.01 µM
same,GI50,HOP-62 NSCLC,0.0692 µM
same,TGI,HOP-62 NSCLC,0.306 µM
same,GI50,HS 578T breast,0.0423 µM
same,TGI,HS 578T breast,0.204 µM
same,GI50,HT29 colon,0.0217 µM
same,TGI,HT29 colon,1.48 µM
same,GI50,K-562 leukemia,< 0.01 µM
same,TGI,K-562 leukemia,0.0178 µM
same,GI50,KM12 colon,< 0.01 µM
same,TGI,KM12 colon,0.0638 µM
same,GI50,LOX IMVI melanoma,0.0298 µM
same,TGI,LOX IMVI melanoma,0.164 µM
same,GI50,M14 melanoma,0.016 µM
same,TGI,M14 melanoma,1.74 µM
same,GI50,MALME-3M melanoma,0.0455 µM
same,TGI,MALME-3M melanoma,1.85 µM
same,GI50,MCF7 breast,< 0.01 µM
same,TGI,MCF7 breast,10.9 µM
same,GI50,MDA-MB-231 breast,0.0378 µM
same,TGI,MDA-MB-231 breast,1.49 µM
same,GI50,MDA-MB-435 melanoma,0.209 µM
same,TGI,MDA-MB-435 melanoma,2.42 µM
same,GI50,MDA-MB-468 breast,0.0141 µM
same,TGI,MDA-MB-468 breast,0.0426 µM
same,GI50,MOLT-4 leukemia,< 0.01 µM
same,TGI,MOLT-4 leukemia,0.0169 µM
same,GI50,NCI-H226 lung,0.0174 µM
same,TGI,NCI-H226 lung,0.132 µM
same,GI50,NCI-H23 lung,0.0145 µM
same,TGI,NCI-H23 lung,0.189 µM
same,GI50,NCI-H322M lung,0.238 µM
same,TGI,NCI-H322M lung,1.28 µM
same,GI50,NCI-H460 NSCLC,< 0.01 µM
same,TGI,NCI-H460 NSCLC,0.141 µM
same,GI50,NCI-H522 lung,0.0149 µM
same,TGI,NCI-H522 lung,0.598 µM
same,GI50,NCI/ADR-RES ovarian,2.67 µM
same,TGI,NCI/ADR-RES ovarian,14.1 µM
same,GI50,OVCAR-3 ovarian,0.0316 µM
same,TGI,OVCAR-3 ovarian,0.4 µM
same,GI50,OVCAR-4 ovarian,1.16 µM
same,TGI,OVCAR-4 ovarian,4.54 µM
same,GI50,OVCAR-8 ovarian,0.165 µM
same,TGI,OVCAR-8 ovarian,1.15 µM
same,GI50,PC-3 prostate,0.0815 µM
same,TGI,PC-3 prostate,2.61 µM
same,GI50,RPMI-8226 leukemia,0.0196 µM
same,TGI,RPMI-8226 leukemia,0.188 µM
same,GI50,RXF 393 renal,0.0604 µM
same,TGI,RXF 393 renal,0.248 µM
same,GI50,SF-268 CNS,0.0307 µM
same,TGI,SF-268 CNS,0.26 µM
same,GI50,SF-295 CNS,0.063 µM
same,TGI,SF-295 CNS,1.05 µM
same,GI50,SF-539 CNS,0.0311 µM
same,TGI,SF-539 CNS,0.228 µM
same,GI50,SK-MEL-28 melanoma,0.121 µM
same,TGI,SK-MEL-28 melanoma,1.39 µM
same,GI50,SK-MEL-5 melanoma,0.258 µM
same,TGI,SK-MEL-5 melanoma,1.73 µM
same,GI50,SK-OV-3 ovarian,0.0696 µM
same,TGI,SK-OV-3 ovarian,12.7 µM
same,GI50,SN12C renal,0.0224 µM
same,TGI,SN12C renal,0.207 µM
same,GI50,SNB-19 CNS,0.136 µM
same,TGI,SNB-19 CNS,11.7 µM
same,GI50,SNB-75 CNS,0.0136 µM
same,TGI,SNB-75 CNS,0.165 µM
same,GI50,SR leukemia,< 0.01 µM
same,GI50,SW-620 colon,0.0239 µM
same,TGI,SW-620 colon,1.19 µM
same,GI50,T-47D breast,0.267 µM
same,TGI,T-47D breast,17.3 µM
same,GI50,TK-10 renal,0.137 µM
same,TGI,TK-10 renal,0.587 µM
same,GI50,U251 glioblastoma,0.209 µM
same,TGI,U251 glioblastoma,10.5 µM
same,GI50,UACC-257 melanoma,1.23 µM
same,TGI,UACC-257 melanoma,2.73 µM
same,GI50,UACC-62 melanoma,0.0473 µM
same,TGI,UACC-62 melanoma,1.59 µM
same,GI50,UO-31 renal,0.221 µM
same,TGI,UO-31 renal,1.27 µM
